Experimental data published in patent US20240215577A1, “FUNGICIDAL PYRIDONES” (FMC Corporation, priority 2021, published 2024).

Legend:
Zymoseptoria tritici = test: Test A: wheat leaf blotch, preventive spray on wheat seedlings; format: in vivo; conditions: 50 ppm, 100 = 100% disease control, 0 = no control; for pest or weed control at 50 ppm: Zymoseptoria tritici, read-out: Test A disease control rating
How it was run: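 Wheat seedlings were sprayed to run-off with compound in acetone/water 50/50 containing 250 ppm PEG400 and inoculated with Z. tritici spores the next day. Plants were held 48 h saturated at 24 °C, then 17 days at 20 °C. Disease was rated 0–100% control relative to controls.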

[1] = system: Puccinia recondita f. sp. tritici; test: Test B: wheat leaf rust, preventive spray on wheat seedlings; format: in vivo; conditions: 50 ppm, 100 = 100% disease control, 0 = no control; for pest or weed control at 50 ppm: Puccinia recondita, read-out: Test B disease control rating
How it was run: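 Wheat seedlings sprayed to run-off with compound suspended at set ppm in 50/50 acetone/water (3% acetone pre-dissolution, 250 ppm PEG400); inoculated with rust spores next day. Held 24 h saturated at 20° C., then 7 days in growth chamber at 20° C.; visual rating, 0–100% disease control versus controls.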

[2] = system: Blumeria graminis f. sp. tritici; test: Test C: wheat powdery mildew, preventive spray on wheat seedlings; format: in vivo; conditions: 50 ppm, 100 = 100% disease control, 0 = no control; for pest or weed control at 50 ppm: Blumeria graminis, read-out: Test C disease control rating
How it was run: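 Preventive assay: wheat seedlings sprayed to run-off with compound at the stated ppm (acetone/water 50/50, 250 ppm PEG400), dusted with B. graminis f. sp. tritici spores the following day, then kept 8 days at 20°C. Disease control visually scored 0-100 versus controls.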

Phakopsora pachyrhizi = test: Test D: Asian soybean rust, preventive spray on soybean seedlings; format: in vivo; conditions: 50 ppm, 100 = 100% disease control, 0 = no control; for pest or weed control at 50 ppm: Phakopsora pachyrhizi, 216 h, read-out: Test D disease control rating
How it was run: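 Soybean seedlings sprayed to run-off with compound suspension (ppm, in 50/50 acetone/water with 250 ppm PEG400), inoculated next day with P. pachyrhizi spores, held 24 h saturated at 22°C then 8 days at 22°C. Visual rating 0-100% disease control relative to controls.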

Botrytis cinerea = test: Test E: tomato Botrytis, preventive spray on tomato seedlings; format: in vivo; conditions: 50 ppm, 100 = 100% disease control, 0 = no control; for pest or weed control at 50 ppm: Botrytis cinerea, read-out: Test E disease control rating
How it was run: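 Compounds dissolved in acetone (3% of final volume), suspended in 50/50 acetone/water with 250 ppm PEG400, sprayed to run-off on seedlings. Spore inoculation next day; 48 h saturated atmosphere at 20° C, then 3 days at 24° C. Visual disease rating 0–100% control relative to controls.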

Alternaria solani = test: Test F: tomato early blight, preventive spray on tomato seedlings; format: in vivo; conditions: 50 ppm, 100 = 100% disease control, 0 = no control; for pest or weed control at 50 ppm: Alternaria solani, read-out: Test F disease control rating
How it was run: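 Compounds in acetone/water (50/50) with 250 ppm PEG400 were sprayed to run-off on tomato seedlings and inoculated with Alternaria solani spores the next day. Plants were held in saturated humidity at 27° C for 48 h, then at 20° C for 3 days. Disease control was rated visually, 0–100, against controls.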

SMILES: COc1cc(OC)c(Br)c(-c2cn(C)c(=O)c(Cl)c2-c2ccc(F)cc2F)c1 [Compound 9, 5-(2-bromo-3,5-dimethoxyphenyl)-3-chloro-4-(2,4-difluorophenyl)-1-methyl-2(1H)-pyridinone]
- pest or weed control at 50 ppm (Zymoseptoria tritici): 100%
- pest or weed control at 50 ppm [1]: 100%
- pest or weed control at 50 ppm [2]: 99%
- pest or weed control at 50 ppm (Phakopsora pachyrhizi): 100%
- pest or weed control at 50 ppm (Botrytis cinerea): 98%
- pest or weed control at 50 ppm (Alternaria solani): 100%
- melting point: 211 to 214 °C

SMILES: COc1cc(OC)c(Cl)c(-c2cn(C)c(=O)c(C)c2-c2ccc(F)cc2Cl)c1 [Compound 13, 5-(2-chloro-3,5-dimethoxyphenyl)-4-(2-chloro-4-fluorophenyl)-1,3-dimethyl-2(1H)-pyridinone]
- pest or weed control at 50 ppm (Zymoseptoria tritici): 100%
- pest or weed control at 50 ppm [1]: 100%
- pest or weed control at 50 ppm [2]: 100%
- pest or weed control at 50 ppm (Phakopsora pachyrhizi): 100%
- pest or weed control at 50 ppm (Botrytis cinerea): 94%
- pest or weed control at 50 ppm (Alternaria solani): 100%
- melting point: 140 to 143 °C

SMILES: COc1ccc(Br)c(-c2cn(C)c(=O)c(Cl)c2-c2ccc(F)cc2F)c1 [Compound 20, 5-(2-bromo-5-methoxyphenyl)-3-chloro-4-(2,4-difluorophenyl)-1-methyl-2(1H)-pyridinone]
- pest or weed control at 50 ppm (Zymoseptoria tritici): 100%
- pest or weed control at 50 ppm [1]: 100%
- pest or weed control at 50 ppm [2]: 98%
- pest or weed control at 50 ppm (Phakopsora pachyrhizi): 97%
- pest or weed control at 50 ppm (Botrytis cinerea): 98%
- pest or weed control at 50 ppm (Alternaria solani): 99%
- melting point: 227 to 230 °C

SMILES: COc1cc(OC)c(Cl)c(-c2cn(C)c(=O)c(Cl)c2-c2ccc(F)cc2F)c1 [Compound 29, 3-chloro-5-(2-chloro-3,5-dimethoxyphenyl)-4-(2,4-difluorophenyl)-1-methyl-2(1H)-pyridinone]
- pest or weed control at 50 ppm (Zymoseptoria tritici): 100%
- pest or weed control at 50 ppm [1]: 100%
- pest or weed control at 50 ppm [2]: 99%
- pest or weed control at 50 ppm (Phakopsora pachyrhizi): 100%
- pest or weed control at 50 ppm (Botrytis cinerea): 94%
- pest or weed control at 50 ppm (Alternaria solani): 99%
- melting point: 189 to 192 °C

SMILES: COc1ccc(Cl)c(-c2cn(C)c(=O)c(Cl)c2-c2ccc(F)cc2F)c1 [Compound 30, 3-chloro-5-(2-chloro-5-methoxyphenyl)-4-(2,4-difluorophenyl)-1-methyl-2(1H)-pyridinone]
- pest or weed control at 50 ppm (Zymoseptoria tritici): 100%
- pest or weed control at 50 ppm [1]: 100%
- pest or weed control at 50 ppm [2]: 100%
- pest or weed control at 50 ppm (Phakopsora pachyrhizi): 100%
- pest or weed control at 50 ppm (Botrytis cinerea): 94%
- pest or weed control at 50 ppm (Alternaria solani): 99%
- melting point: 192 to 195 °C

SMILES: COc1cc(OC)c(F)c(-c2cn(C)c(=O)c(Cl)c2-c2ccc(F)cc2F)c1 [Compound 51, 3-chloro-4-(2,4-difluorophenyl)-5-(2-fluoro-3,5-dimethoxyphenyl)-1-methyl-2(1H)-pyridinone]
- pest or weed control at 50 ppm (Zymoseptoria tritici): 100%
- pest or weed control at 50 ppm [1]: 100%
- pest or weed control at 50 ppm [2]: 98%
- pest or weed control at 50 ppm (Phakopsora pachyrhizi): 99%
- pest or weed control at 50 ppm (Botrytis cinerea): 98%
- pest or weed control at 50 ppm (Alternaria solani): 100%
- melting point: 155 to 158 °C

SMILES: COc1ccc(Cl)c(-c2cn(C)c(=O)c(Cl)c2-c2ccccc2F)c1 [Compound 61]
- Test A disease control rating (Zymoseptoria tritici): 100%
- Test B disease control rating [1]: 100%
- Test C disease control rating [2]: 89%
- Test D disease control rating (Phakopsora pachyrhizi): 94%
- Test E disease control rating (Botrytis cinerea): 98%
- Test F disease control rating (Alternaria solani): 100%

SMILES: COc1ccc(Cl)c(-c2cn(C)c(=O)cc2-c2ccccc2Br)c1 [Compound 62]
- Test A disease control rating (Zymoseptoria tritici): 37%
- Test B disease control rating [1]: 74%
- Test C disease control rating [2]: 0%
- Test D disease control rating (Phakopsora pachyrhizi): 0%
- Test E disease control rating (Botrytis cinerea): 98%
- Test F disease control rating (Alternaria solani): 0%

SMILES: Cc1ccsc1-c1cn(C)c(=O)c(Cl)c1-c1ccc(F)cc1Cl [Compound 63]
- Test A disease control rating (Zymoseptoria tritici): 84%
- Test B disease control rating [1]: 80%
- Test C disease control rating [2]: 0%
- Test D disease control rating (Phakopsora pachyrhizi): 0%
- Test E disease control rating (Botrytis cinerea): 88%
- Test F disease control rating (Alternaria solani): 0%

SMILES: COc1ccc(Cl)c(-c2cn(C)c(=O)c(Cl)c2-c2cccc(F)c2F)c1 [Compound 64]
- Test A disease control rating (Zymoseptoria tritici): 98%
- Test B disease control rating [1]: 100%
- Test C disease control rating [2]: 87%
- Test D disease control rating (Phakopsora pachyrhizi): 87%
- Test E disease control rating (Botrytis cinerea): 96%
- Test F disease control rating (Alternaria solani): 100%

SMILES: COc1ccc(Cl)c(-c2cn(C)c(=O)cc2-c2cccc(F)c2F)c1 [Compound 65]
- Test A disease control rating (Zymoseptoria tritici): 8%
- Test B disease control rating [1]: 95%
- Test C disease control rating [2]: 0%
- Test D disease control rating (Phakopsora pachyrhizi): 0%
- Test E disease control rating (Botrytis cinerea): 96%
- Test F disease control rating (Alternaria solani): 0%

SMILES: Cn1cc(-c2cccc([N+](=O)[O-])c2)c(-c2ccc(F)cc2Cl)c(Cl)c1=O [Compound 66]
- Test A disease control rating (Zymoseptoria tritici): 42%
- Test B disease control rating [1]: 80%
- Test C disease control rating [2]: 0%
- Test D disease control rating (Phakopsora pachyrhizi): 0%
- Test E disease control rating (Botrytis cinerea): 79%
- Test F disease control rating (Alternaria solani): 0%

SMILES: COc1ccc(-c2cc(=O)n(C)cc2-c2cc(OC)ccc2Cl)c(Cl)c1 [Compound 68]
- Test A disease control rating (Zymoseptoria tritici): 61%
- Test B disease control rating [1]: 98%
- Test C disease control rating [2]: 0%
- Test D disease control rating (Phakopsora pachyrhizi): 0%
- Test E disease control rating (Botrytis cinerea): 88%
- Test F disease control rating (Alternaria solani): 73%

SMILES: COc1ccc(-c2c(-c3cc(OC)ccc3Cl)cn(C)c(=O)c2Cl)c(Cl)c1 [Compound 69]
- Test A disease control rating (Zymoseptoria tritici): 100%
- Test B disease control rating [1]: 100%
- Test C disease control rating [2]: 99%
- Test D disease control rating (Phakopsora pachyrhizi): 79%
- Test E disease control rating (Botrytis cinerea): 98%
- Test F disease control rating (Alternaria solani): 100%

SMILES: COc1ccc(Cl)c(-c2cn(C)c(=O)cc2-c2ccccc2C(F)(F)F)c1 [Compound 70]
- Test A disease control rating (Zymoseptoria tritici): 50%
- Test B disease control rating [1]: 68%
- Test C disease control rating [2]: 83%
- Test D disease control rating (Phakopsora pachyrhizi): 0%
- Test E disease control rating (Botrytis cinerea): 93%
- Test F disease control rating (Alternaria solani): 0%

SMILES: COc1ccc(Cl)c(-c2cn(C)c(=O)c(Cl)c2-c2ccc(F)cc2Br)c1 [Compound 71]
- Test A disease control rating (Zymoseptoria tritici): 100%
- Test B disease control rating [1]: 100%
- Test C disease control rating [2]: 100%
- Test D disease control rating (Phakopsora pachyrhizi): 73%
- Test E disease control rating (Botrytis cinerea): 96%
- Test F disease control rating (Alternaria solani): 99%

SMILES: CCn1cc(-c2cc(OC)ccc2Cl)c(-c2ccc(F)cc2Cl)c(Cl)c1=O [Compound 75]
- Test A disease control rating (Zymoseptoria tritici): 97%
- Test B disease control rating [1]: 97%
- Test C disease control rating [2]: 0%
- Test D disease control rating (Phakopsora pachyrhizi): 0%
- Test E disease control rating (Botrytis cinerea): 98%
- Test F disease control rating (Alternaria solani): 0%

SMILES: CCCn1cc(-c2cc(OC)ccc2Cl)c(-c2ccc(F)cc2Cl)c(Cl)c1=O [Compound 76]
- Test A disease control rating (Zymoseptoria tritici): 63%
- Test B disease control rating [1]: 55%
- Test C disease control rating [2]: 0%
- Test D disease control rating (Phakopsora pachyrhizi): 0%
- Test E disease control rating (Botrytis cinerea): 96%
- Test F disease control rating (Alternaria solani): 0%

SMILES: C=CCn1cc(-c2cc(OC)ccc2Cl)c(-c2ccc(F)cc2Cl)c(Cl)c1=O [Compound 77]
- Test A disease control rating (Zymoseptoria tritici): 40%
- Test B disease control rating [1]: 74%
- Test C disease control rating [2]: 0%
- Test D disease control rating (Phakopsora pachyrhizi): 0%
- Test E disease control rating (Botrytis cinerea): 91%
- Test F disease control rating (Alternaria solani): 0%
